# Assay results as given in article PMC4741274 (Neurochemical research, 2015).
# “And” between values parts separate entries of the source, which are not always exact repeats. Equal values may be shown once. “Also recorded” adds a separate entry of the source. Read-outs that look alike come from different tables or passages of the source.
# Assays:
# [1] = biological target: T1, α4β2 nAChR (Rattus norvegicus, UniProt P09483+P12390); assay type: binding; details: for Ki: read-out: Ki α4β2, vs 500pM [3H]EB, HEK cells, Mean ± SEM of three
# [2] = biological target: α2β2 nAChR (Rattus norvegicus, UniProt P12389+P12390); experiment: Competition binding vs 500 pM [3H]EB, stably transfected HEK cells
# [3] = biological target: α3β2 nAChR (Rattus norvegicus, UniProt P04757+P12390); experiment: as above
# [4] = biological target: rat α3β4 nAChRs (Rattus norvegicus, UniProt P04757+P12392); experiment: cell-based; assay type: cell-based; details: for Agonist activity (in words): α3β4 nAChRs, 86Rb+ efflux
# [5] = biological target: T2, α2β4 nAChR (Rattus norvegicus, UniProt P12389+P12392); experiment: Competition binding vs 500 pM [3H]EB, stably transfected HEK cells
# [6] = biological target: T3, α7 nAChR (Rattus norvegicus, UniProt Q05941); experiment: as above
# [7] = biological target: T4, α3β4 nAChR (Rattus norvegicus, UniProt P04757+P12392); experiment: as above; details: for Selectivity ratio α3β4/α7: ratio of Ki in stably transfected cells
# [8] = test system: α4β2* nAChRs from rat forebrain tissue (FB); experiment: biochemical; assay type: binding; details: Ki α3β4 transfected cells vs rat forebrain (FB) α4β2
# [9] = biological target: α4β2* nAChRs from rat forebrain tissue (FB) (Rattus norvegicus, UniProt P09483+P12390); experiment: biochemical; assay type: binding
# [10] = test system: Human α4β2 nAChRs expressed in K177 cells; details: 86Rb+ efflux, ref [22]; cited from earlier work
# [11] = test system: IMR-32 cells (ganglionic-like α3β4 nAChRs); details: 86Rb+ efflux, ref [22]; cited from earlier work
# [12] = biological target: α4β4 nAChR (Rattus norvegicus, UniProt P09483+P12392); experiment: Competition binding vs 500 pM [3H]EB, stably transfected HEK cells
# [13] = test system: α4β2* nAChRs from rat forebrain tissue (FB); details: cited from earlier work
# [14] = biological target: T1, α4β2 nAChR; details: added only for comparison; ref [24]; cited from earlier work
# [15] = biological target: T4, α3β4 nAChR; details: cited from earlier work
# [16] = biological target: T3, α7 nAChR; details: read-out: Ki α7; added for comparison; ref [24]; cited from earlier work
# [17] = biological target: T2, α2β4 nAChR; details: read-out: Ki α2β4; added for comparison; ref [24]; cited from earlier work
# [18] = biological target: nAChRs (Rattus norvegicus, UniProt P09483+P12390); assay type: binding; details: read-out: Ki AVG
# [19] = ratio of Ki in stably transfected cells
# [20] = read-out: Ki α2β2, vs 500pM [3H]EB, HEK cells, Mean ± SEM of three
# [21] = read-out: Ki α3β2, vs 500pM [3H]EB, HEK cells, Mean ± SEM of three
# [22] = read-out: Ki α2β4, vs 500pM [3H]EB, HEK cells, Mean ± SEM of three
# [23] = read-out: Ki α7, vs 500pM [3H]EB, HEK cells, Mean ± SEM of three
# [24] = read-out: Ki α3β4, vs 500pM [3H]EB, HEK cells, Mean ± SEM of three
# [25] = read-out: Ki α4β4, vs 500pM [3H]EB, HEK cells, Mean ± SEM of three
Structure (SMILES),"Selectivity ratio α3β4/α4β2 [1, 19]",EC50 [4] [nM],Agonist activity (in words) [4],Selectivity ratio α3β4/α7 [7],Selectivity ratio α3β4/α4β2*FB [8],Agonist/antagonist function (in words) [10],EC50 [10] [nM],Agonist/antagonist function (in words) [11],Ki [1] [nM],"Ki [2, 20] [nM]","Ki [3, 21] [nM]","Ki [5, 22] [nM]","Ki [6, 23] [nM]",Ki [18] [nM],"Ki [7, 24] [nM]","Ki [12, 25] [nM]",other results
"CN1CCC[C@H]1COc1cccnc1 [A-84543, 3-(1-methyl-2(S)-pyrrolidinylmethoxy)pyridine, reference compound]","1,357",160000 ± 40000,partial agonist with low potency,5.58,351.9,full agonists,750,full agonists,–,–,–,–,–,–,–,–,"Selectivity ratio α7/α4β2 [1, 19]: 242; Ki [2]: 2 ± 0.3 nM; Ki [3]: 12 ± 1 nM; Emax ([4]; HEK293, read-out: Relative Emax): 37.5 ± 6%; Ki [5]: 370 ± 40 nM; Ki [6]: 340 ± 50 nM; Ki [7]: 1900 nM; Ki [9]: 5.4 ± 0.6 nM; Ki [12]: 150 ± 10 nM"
"c1cncc(OC[C@@H]2CCN2)c1 [A-85380, 3-(2(S)-azetidinylmethoxy) pyridine]",–,–,–,–,–,–,–,–,–,–,–,–,–,–,–,–,"Selectivity ratio α3β4/α4β2*FB [13]: 312; Selectivity ratio α3β4/α4β2 [14]: 557.14; Selectivity ratio α7/α4β2 [14]: 3,000; Selectivity ratio α3β4/α7 [15]: 0.18; Ki [16]: 420 ± 50 nM; Ki [17]: 18 ± 4 nM"
c1cncc(OC[C@@H]2CCCN2)c1 [H-11MNH],538.5,24000 ± 1000,full agonist with high potency; also recorded: full agonist with high efficacy,3.23,295.8,full agonists,4000,full agonists,0.39 ± 0.05,0.35 ± 0.09,1.3 ± 0.3,76 ± 12,65 ± 5,0.46,210 ± 40,31 ± 6,Relative Emax [4]: 83.33% and 83.3 ± 3%; Selectivity ratio α3β4/α4β2*FB ([8]; listed as H-11NMH): ~ 300
c1ccc(OCC2CCCN2)nc1 (centres unmarked) [H-11ONH],–,–,–,–,–,–,–,–,> 10000,> 10000,> 10000,> 10000,> 10000,21800,> 10000,> 10000,–
CN1CCCC1COc1ccccn1 (centres unmarked) [H-11ONM],–,–,–,–,–,–,–,–,> 10000,> 10000,> 10000,> 10000,> 10000,60300,> 10000,> 10000,–
c1cc(OC[C@@H]2CCCN2)ccn1 [H-11PNH],–,–,–,–,–,–,–,–,> 10000,> 10000,> 10000,> 10000,> 10000,59200,> 10000,> 10000,–
